The values below are quoted from earlier work in US5639785A, “Methods for the treatment of baldness and gray hair using isoflavonoid derivatives” (priority 1995, dated 1997).

The subject of data set [1] is patients with hair loss. The note with it: after four months of treatment.
In data set [2] the test system is LNCaP human prostate cancer cell line.
Data set [3] concerns Du-145 human prostate cancer cell line.
The subject of data set [4] is alcohol dehydrogenase (ADH) class I isozymes.
Data set [5] has as its target r1 r1 ADH isozyme (alcohol dehydrogenase class I) (Homo sapiens, UniProt P00326). The note with it: competitive with respect to ethanol, uncompetitive with respect to NAD.
Data set [6] concerns HL60 human leukemia cells.
Data set [7] deals with r2 r2 ADH isozyme (alcohol dehydrogenase class I) (Homo sapiens, UniProt P00326, I350V/R272Q). The note with it: competitive with respect to ethanol, uncompetitive with respect to NAD.
In data set [8] the test system is Syrian Golden hamsters.
In data set [9] the target is T1, aldehyde dehydrogenase (ALDH) II and II of human mitochondria (Homo sapiens, UniProt P05091).
T1 sequence (P05091 18-517): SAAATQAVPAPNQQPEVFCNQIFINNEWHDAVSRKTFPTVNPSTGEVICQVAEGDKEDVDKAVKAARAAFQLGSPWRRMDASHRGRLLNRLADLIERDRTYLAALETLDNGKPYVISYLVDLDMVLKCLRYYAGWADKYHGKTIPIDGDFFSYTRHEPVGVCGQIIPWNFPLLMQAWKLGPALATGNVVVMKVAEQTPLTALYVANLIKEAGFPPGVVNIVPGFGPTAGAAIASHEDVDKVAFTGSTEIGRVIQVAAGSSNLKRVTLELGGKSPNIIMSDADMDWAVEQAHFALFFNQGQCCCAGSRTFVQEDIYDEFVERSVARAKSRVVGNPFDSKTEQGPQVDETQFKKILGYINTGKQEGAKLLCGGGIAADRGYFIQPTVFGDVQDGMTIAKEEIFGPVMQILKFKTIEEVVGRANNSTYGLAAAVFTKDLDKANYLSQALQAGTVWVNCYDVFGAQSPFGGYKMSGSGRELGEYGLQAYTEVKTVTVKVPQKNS

The structures appear in SMILES notation. Where two headings read alike, the source gives them in different places.

Sequence of r2 r2 ADH isozyme (alcohol dehydrogenase class I) (P00326 2-375 R272Q/I350V limits assumed): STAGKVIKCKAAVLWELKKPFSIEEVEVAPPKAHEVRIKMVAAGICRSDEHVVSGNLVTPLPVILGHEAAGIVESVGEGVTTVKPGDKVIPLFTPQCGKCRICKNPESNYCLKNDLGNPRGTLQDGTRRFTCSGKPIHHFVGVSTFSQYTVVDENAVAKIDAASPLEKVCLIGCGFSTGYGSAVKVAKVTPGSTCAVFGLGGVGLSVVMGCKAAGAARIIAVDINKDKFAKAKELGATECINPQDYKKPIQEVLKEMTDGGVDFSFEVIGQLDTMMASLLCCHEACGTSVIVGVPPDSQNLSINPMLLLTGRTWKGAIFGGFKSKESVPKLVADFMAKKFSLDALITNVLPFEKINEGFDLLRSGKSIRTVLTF
Sequence of r1 r1 ADH isozyme (alcohol dehydrogenase class I) (P00326 2-375 limits assumed): as the sequence (P00326 2-375 R272Q/I350V limits assumed) above, with Q271R, V349I counted along it

As for `Nc1cc(N2CCCCC2)nc(N)[n+]1[O-]` [Minoxidil], the “patients who achieve minimal regrowth of hair” value in data set [1] is “approximately 25%”.

Turning to `COc1ccc(-c2coc3cc(O)cc(O)c3c2=O)cc1` [biochanin A], the “inhibition of serum and epidermal growth factor-stimulated growth” value in [2] and in data set [3] was “inhibited” in each case.

Consider `O=c1c(-c2ccc(O)cc2)coc2cc(O)ccc12` [daidzein, 7-hydroxy-3-(4-hydroxyphenyl)-4-H-1-benzopyranyl-4-one], for which the “inhibition of ADH” value in data set [4] is listed as “reversible inhibitors”. Besides, the Ki in data set [5] and in data set [7] was roughly 1000 nM each time. Further, the “concentration that inhibited the growth of HL60 cells” value in data set [6] is “greater than 10 μg/ml”. Also, the “inhibition of serum and epidermal growth factor-stimulated growth” value in [2] and in data set [3] was “not” in each case. The “free choice ethanol intake” value in data set [8] (Syrian Golden hamsters) is recorded as “suppressed”. For the same compound, the “effect on body weight, water or food intake” value in data set [8] (hamster, in vivo) was “did not significantly affect”.

Turning to `O=c1c(-c2ccc(O)cc2)coc2cc(O[C@@H]3O[C@H](CO)[C@@H](O)[C@H](O)[C@H]3O)ccc12` [daidzin], in [4], the “inhibition of ADH” value was “did not inhibit”. Besides, the “inhibition of ALDH” value in data set [9] was “potent inhibitor”. Further, in data set [8] (Syrian Golden hamsters), the “effect on body weight, water or food intake” value is “did not significantly affect” and the “free choice ethanol intake” value was “suppressed”.

As for `O=c1c(-c2ccc(O)cc2)coc2cc(O)cc(O)c12` [genistein], in data set [4], the “inhibition of ADH” value is “reversible inhibitors”. Further, the “inhibition of serum and epidermal growth factor-stimulated growth” value in data set [2] and in data set [3] was “inhibited” throughout.
